From patent publication US8334403B1, “C-lysine conjugates as pH-controlled, light-activated reagents for double stranded DNA cleavage and associated methods” (Florida State University Research Foundation, Inc., priority 2005, dated 2012)

Tests used:
[1] = test system: pBR322 plasmid DNA; assay: Plasmid relaxation assay: DNA photocleavage of supercoiled plasmid under UV irradiation; type: biochemical
Method: General information. ^1H, ^13C and ^19F NMR were collected on a Varian Gemini 300 MHz NMR spectrometer and a Bruker 300 MHz NMR spectrometer. Mass spectrometry data was collected on a Jeol JMS-600H. UV spectra were recorded on a Shimadzu UV-2100. Fluorescence spectra were obtained with SPEX FluoMax spectrofluorimeter using right-angle geometry. pH was adjusted with AB 15 plus pH meter (Accument) after standardization at 25° C. All buffers were prepared and pH-adjusted at room temperature (25° C.). Plasmid DNA Photocleavage. pBR322 plasmid DNA (4,361 b/p; from BioLabs Inc., 1 μg/μL solution in 10 mM Tris-HCl (pH 8.0), and 1 mM EDTA buffer) was diluted to a concentration of 0.01 μg/μL. The solution containing cleavage agent, DNA (30 μM/bp) in 20 mM sodium phosphate buffer was incubated for 1 hour at 30° C. Samples were placed on ice at a distance of 20 cm from 200 W Hg—Xe lamp (Spectra-Physics, Laser & Photonics Oriel Instruments with long pass filter with 324 nm cut-off wavelength). Electrophoretic Analysis. The gel electrophoresis was carried out in 1×TBE buffer at 80 V using Miligel FisherBiotech Horizontal Electrophoresis System. All gels were run on 1% agarose slab gels. Before loading, the DNA samples were mixed with 0.33 volume of tracking dye containing bromophenol blue (0.25%) and glycerol (30%) in water. After staining in ethidium bromide solution (2 μg/ml) for 1 hour, the gel was washed with water and pictures were taken with Polaroid 3000ISO type 667 film. The relative quantities of the supercoiled, nicked, and linear DNA were calculated by integrating the “area” of each spot by the image analyzer software Total/Lab (Nonlinear Dynamics Ltd., UK). The amount of supercoiled DNA was multiplied by factor of 1.4 to account for reduced ethidium bromide intercalation into supercoiled DNA. pH titration by ^1H-NMR. pH* of compound 8 (3 mM) solution in D2O containing 0.05 wt % 3-(trimethylsilyl)propionic-2,2,3,3-d4 acid, sodium salt (TSP-d4) was adjusted with 10 wt % DCI and NaOD in D2O at 25° C. under argon purged condition. Spectrometric determinations of pKa. pH of 10 μM of compound solution in H2O was adjusted with 10, 100 mM HCl (aq) and NaOH (aq) solution under argon purged condition. Excitation wavelength was 330 nm and polymethacrylate fluorimeter cuvettes were used. Absorbance and fluorescence titration with DNA. The concentrations of calf thymus DNA stock solution was determined spectophotometrically using the following molar absorptovity values: 1.32×10^4 M^−1 cm^−1 (per base pair) at 260 nm. All experiments were done in 20 mM sodium phosphate buffer at 25° C. and polymethacrylate fluorimeter cuvettes were used. The same amount of DNA was added to both sample and reference cuvettes during UV/Vis titration. Determination of excited state lifetimes. The concentration of compound solution was 10 μM in 20 mM sodium phosphate buffer. The photoluminescence lifetime measurements were conducted by exciting the samples with the output of a Nd:VO—4 (Spectra-Physics Vanguard, 2 W, 532 nm, 76 MHz, 10 ps) pumped R6G dye laser (Coherent 702-1). The output of the dye laser (600 nm, Rhodamine 6G) was cavity dumped at 1.9 MHz and frequency doubled using a BBO crystal to excite the fluorophore (the excitation wavelength used was 290 nm). Samples were excited with <1 mW power and the emission was collected at right angles onto a Chromex S3 500 is 0.5 m imaging monochromator with a 50 g/mm grating and 0.5 nm resolution. Output of the monochromator is focused into a Hamamatsu C5680 streak camera operating at a 20 ns window for the fluorophore. Intensity analysis was carried out by integrating the spectral profile in time on the streak camera. Lifetime analysis over 6-7 lifetimes of the fluorophore was conducted by binning the photoluminescence intensity collected on the streak camera over a 20 nm spectral window at the centroid value of the emission of the fluorophore. Ethidium bromide displacement. […]

[2] = test system: calf thymus (CT) DNA; assay: Fluorescence (emission) titration with DNA; type: binding; details: 10 μM, 20 mM phosphate buffer
Method: General information. ^1H, ^13C and ^19F NMR were collected on a Varian Gemini 300 MHz NMR spectrometer and a Bruker 300 MHz NMR spectrometer. Mass spectrometry data was collected on a Jeol JMS-600H. UV spectra were recorded on a Shimadzu UV-2100. Fluorescence spectra were obtained with SPEX FluoMax spectrofluorimeter using right-angle geometry. pH was adjusted with AB 15 plus pH meter (Accument) after standardization at 25° C. All buffers were prepared and pH-adjusted at room temperature (25° C.). Plasmid DNA Photocleavage. pBR322 plasmid DNA (4,361 b/p; from BioLabs Inc., 1 μg/μL solution in 10 mM Tris-HCl (pH 8.0), and 1 mM EDTA buffer) was diluted to a concentration of 0.01 μg/μL. The solution containing cleavage agent, DNA (30 μM/bp) in 20 mM sodium phosphate buffer was incubated for 1 hour at 30° C. […] The relative quantities of the supercoiled, nicked, and linear DNA were calculated by integrating the “area” of each spot by the image analyzer software Total/Lab (Nonlinear Dynamics Ltd., UK). […] Absorbance and fluorescence titration with DNA. The concentrations of calf thymus DNA stock solution was determined spectophotometrically using the following molar absorptovity values: 1.32×10^4 M^−1 cm^−1 (per base pair) at 260 nm. […]

[3] = test system: LNCap human prostate adenocarcinoma cells; assay: LNCap cell proliferation assay; type: cell-based
[4] = Solubility / aggregation in water; type: physicochemical; details: higher pH values (~8)
Source text: The decrease in solubility leads to the apparent aggregation and distortion of potentiometric curves at the higher pH. This distortion prevents accurate curve fitting (see FIG. 25). Thus, we had to resort to alternative spectral methods. Fortunately, there is a selection of convenient procedures which provide complementary information which can be used for cross-checking the accuracy of the alternative approaches.

[5] = test system: three human clear cell renal cell carcinoma (RCC) cell lines (UMRC3, UMRC6, 786-O); assay: RCC cell proliferation assay, three cell lines together; type: cell-based; details: 10 μM
Method: FIG. 23 provides the results of cell proliferation assays using three different RCC cell lines: (a) UMRC3, (b) UMRC6 and (c) 786-O, and compounds I-5; RCC cells were resuspended in media and treated with UV radiation (350 nm) for 10 minutes with and without indicated compounds; control cells were exposed to the indicated compound 1-5 at final concentration of 10 μM; cell numbers determined after 72 hours as described in the SI Section;
The ability of compounds 1-5 to inhibit cell proliferation in three human clear cell renal cell carcinoma (RCC) cell lines was tested in the dark and under photoactivation (FIG. 23). No difference was detected in the control experiments between cells not exposed to UV versus those that were exposed to UV at 350 nm for 10 minutes in any of the three RCC cell lines tested (FIG. 23 A, B & C; first two columns).

Cl.Cl.NCCCC[C@H](N)C(=O)Nc1ccc(C#Cc2c(F)c(F)nc(F)c2F)cc1 [Compound 4, (S)-2,6-Diamino-hexanoic acid [4-(2,3,5,6-tetrafluoro-pyridin-4-ylethynyl)-phenyl]-amide dihydrochloride]
irradiation time until plasmid DNA is completely consumed ([1]; pH 6, 10 μM): ≤ 5 min
protection of DNA from damage by hydroxyl radical/singlet oxygen scavengers ([1]; pH 6, 10 mM scavenger, 5 min irradiation): neither of the additives is able to protect DNA
intact DNA (Form I) remained ([1]; pH 6, 3 minutes of irradiation, 15 μM, 30 μM/bp DNA): 16%
decrease of total DNA cleavage activity on increasing phosphate buffer from 10 mM to 50 mM ([1]; pH 7, 10 μM): 40%
unreacted DNA (Form I) ([1]; pH 7, 3 minutes of irradiation, 15 μM, 30 μM/bp DNA): 60%
decrease of total DNA cleavage activity on increasing phosphate buffer from 10 mM to 50 mM ([1]; pH 8, 10 μM): 34%
unreacted DNA (Form I) ([1]; pH 8, 3 minutes of irradiation, 15 μM, 30 μM/bp DNA): 86%
DNA remains unreacted ([1]; pH 8, after an hour of irradiation, 10 μM): ~60%
change in fluorescence upon DNA titration [2]: increase in fluorescence
LNCap cells destroyed ([3]; 10 nM, UV 10 minutes, counted after 48 h): more than 90%
toxicity without light ([3]; no UV): almost no toxicity
aggregation and precipitation [4]: does not aggregate and precipitate
cytotoxicity in the dark [5]: considerably less cytotoxic in the dark
